What was measured:
AChE [1] = target: T1, AChE (Homo sapiens, UniProt P22303); assay: Anticholinesterase activity, modified colorimetric Ellman method; format: biochemical; details: for inhibition at 100 µM / inhibition at 1000 µM: read-out: AChE % inhibition; for Selectivity and indexes: selective for AChE (over BChE)
BChE = BChE (Homo sapiens, UniProt P06276); assay: as above; format: biochemical; details: for inhibition at 100 µM / inhibition at 1000 µM: read-out: BChE % inhibition
hMAO A = target: T2, hMAO A (Homo sapiens, UniProt P21397); assay: MAO A inhibition, fluorometric method; format: biochemical; details: for inhibition at 100 µM / inhibition at 1000 µM: read-out: MAO A % inhibition
T2 sequence (P21397 1-527): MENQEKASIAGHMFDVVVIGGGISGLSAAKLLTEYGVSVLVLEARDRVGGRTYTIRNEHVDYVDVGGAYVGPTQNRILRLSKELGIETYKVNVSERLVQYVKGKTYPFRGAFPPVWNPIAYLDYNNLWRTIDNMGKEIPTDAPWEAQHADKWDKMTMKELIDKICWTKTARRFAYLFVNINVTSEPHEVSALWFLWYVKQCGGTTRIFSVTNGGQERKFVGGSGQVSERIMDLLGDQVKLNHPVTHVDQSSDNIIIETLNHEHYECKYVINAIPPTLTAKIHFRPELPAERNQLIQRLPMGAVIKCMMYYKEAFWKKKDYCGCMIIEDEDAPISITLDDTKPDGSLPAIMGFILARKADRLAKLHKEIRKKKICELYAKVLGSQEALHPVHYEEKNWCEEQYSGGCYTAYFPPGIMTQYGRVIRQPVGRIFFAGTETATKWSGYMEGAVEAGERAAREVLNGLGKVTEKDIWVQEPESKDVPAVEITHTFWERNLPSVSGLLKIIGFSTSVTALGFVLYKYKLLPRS

recombinant hMAO B = target: T3, recombinant hMAO B (Homo sapiens, UniProt P27338); assay: MAO B inhibition, fluorometric method; format: biochemical; details: for inhibition at 100 µM / inhibition at 1000 µM: read-out: MAO B % inhibition; for Selectivity and indexes: selective for MAO-B (over MAO A)
T3 sequence (P27338 1-520): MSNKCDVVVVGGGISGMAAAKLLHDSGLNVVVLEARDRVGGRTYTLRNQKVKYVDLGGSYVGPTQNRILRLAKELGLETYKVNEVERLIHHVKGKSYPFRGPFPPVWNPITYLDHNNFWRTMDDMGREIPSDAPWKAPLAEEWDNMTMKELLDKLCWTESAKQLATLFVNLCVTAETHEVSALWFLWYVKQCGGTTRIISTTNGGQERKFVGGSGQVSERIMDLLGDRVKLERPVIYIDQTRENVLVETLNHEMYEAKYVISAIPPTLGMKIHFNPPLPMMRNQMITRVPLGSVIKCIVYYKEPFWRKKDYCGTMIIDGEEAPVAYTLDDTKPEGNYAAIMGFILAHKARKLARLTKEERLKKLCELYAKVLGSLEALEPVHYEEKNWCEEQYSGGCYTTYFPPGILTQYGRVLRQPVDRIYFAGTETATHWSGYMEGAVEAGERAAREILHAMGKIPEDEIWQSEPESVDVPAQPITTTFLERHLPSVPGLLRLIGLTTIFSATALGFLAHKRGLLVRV

AChE [2] = target: T1, AChE; assay: Kinetic studies of AChE enzyme inhibition; format: biochemical; details: Lineweaver-Burk plot
NIH/3T3 cell lines = assay: Cytotoxicity, 24-hour MTT assay; format: cell-based; details: for IC50: Mus musculus, NIH3T3, 24 h, read-out: IC50 against NIH/3T3

T1 sequence (P22303 32-614): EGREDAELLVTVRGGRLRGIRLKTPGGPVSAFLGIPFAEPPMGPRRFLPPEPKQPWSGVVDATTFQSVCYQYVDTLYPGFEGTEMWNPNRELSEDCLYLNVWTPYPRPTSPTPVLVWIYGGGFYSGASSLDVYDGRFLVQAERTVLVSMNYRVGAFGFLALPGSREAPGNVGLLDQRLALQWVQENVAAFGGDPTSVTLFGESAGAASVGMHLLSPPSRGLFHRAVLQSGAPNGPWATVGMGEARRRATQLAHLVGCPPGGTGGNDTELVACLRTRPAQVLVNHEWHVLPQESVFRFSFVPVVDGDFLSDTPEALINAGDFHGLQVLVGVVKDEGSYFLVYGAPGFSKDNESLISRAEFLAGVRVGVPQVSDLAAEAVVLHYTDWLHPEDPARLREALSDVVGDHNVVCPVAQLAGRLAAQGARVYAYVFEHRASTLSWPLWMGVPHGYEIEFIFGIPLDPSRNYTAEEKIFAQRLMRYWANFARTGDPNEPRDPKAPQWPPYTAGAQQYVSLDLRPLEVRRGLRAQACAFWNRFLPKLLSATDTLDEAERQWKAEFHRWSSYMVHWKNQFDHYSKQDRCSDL
Sequence of BChE (P06276 29-602, species assumed): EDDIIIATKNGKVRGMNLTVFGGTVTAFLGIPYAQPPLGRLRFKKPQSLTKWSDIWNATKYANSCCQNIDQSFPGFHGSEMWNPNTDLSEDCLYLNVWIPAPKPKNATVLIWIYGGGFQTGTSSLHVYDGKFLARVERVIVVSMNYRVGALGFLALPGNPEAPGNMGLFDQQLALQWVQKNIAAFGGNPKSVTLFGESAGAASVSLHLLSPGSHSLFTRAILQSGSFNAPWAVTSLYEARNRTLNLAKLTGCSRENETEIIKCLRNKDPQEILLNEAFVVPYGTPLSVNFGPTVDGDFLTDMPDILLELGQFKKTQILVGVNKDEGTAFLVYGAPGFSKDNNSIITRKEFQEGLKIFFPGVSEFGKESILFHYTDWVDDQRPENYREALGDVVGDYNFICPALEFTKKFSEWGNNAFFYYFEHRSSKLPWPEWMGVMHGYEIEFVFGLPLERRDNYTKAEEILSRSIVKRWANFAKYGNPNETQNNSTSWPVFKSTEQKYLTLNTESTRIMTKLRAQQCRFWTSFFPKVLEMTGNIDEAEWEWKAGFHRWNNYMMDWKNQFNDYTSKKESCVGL

Structure (SMILES) | IC50 (AChE [1]) [µM] | inhibition at 100 µM (AChE [1]) [%] | inhibition at 1000 µM (AChE [1]) [%] | Selectivity and indexes (AChE [1]) | IC50 (BChE) [µM] | inhibition at 100 µM (BChE) [%] | inhibition at 1000 µM (BChE) [%] | IC50 (hMAO A) [µM] | inhibition at 100 µM (hMAO A) [%] | inhibition at 1000 µM (hMAO A) [%] | IC50 (recombinant hMAO B; MAO B IC50, tables) [µM] | IC50 (recombinant hMAO B; MAO B IC50, text) [µM] | inhibition at 100 µM (recombinant hMAO B) [%] | inhibition at 1000 µM (recombinant hMAO B) [%] | type of inhibition (AChE [2]) | IC50 (NIH/3T3 cell lines) [µM] | cytotoxicity (in words) (NIH/3T3 cell lines; NIH/3T3, MTT) | Selectivity and indexes (recombinant hMAO B) | Selectivity and indexes (hMAO A; selective for MAO-A (over MAO B))
COc1ccc(C(=O)C=Cc2ccc(NC(=O)CN3CCN(C(C)=O)CC3)cc2)cc1OC [Compound 4g, 2-(4-Acetylpiperazin-1-yl)-N-(4-(3-(3,4-dimethoxyphenyl)-3-oxoprop-1-en-1-yl)phenyl)acetamide] | 0.027 ± 0.001 | 96.4 ± 2.5 | 98 ± 2.56 | AChE/>1000 | > 1000 | 29.9 ± 0.92 | 36.4 ± 0.954 | > 100 | 39.4 ± 1.11 | 69 ± 2.52 | 0.114 ± 0.003 | < 1 | 89.2 ± 2.17 | 92.3 ± 2.16 | reversible and mixed-type inhibitor | 32.2 | not cytotoxic | – | –
COCCN1CCN(CC(=O)Nc2ccc(C=CC(=O)c3ccc(OC)c(OC)c3)cc2)CC1 [Compound 4h, N-(4-(3-(3,4-Dimethoxyphenyl)-3-oxoprop-1-en-1-yl)phenyl)-2-(4-(2-methoxyethyl)piperazin-1-yl)acetamide] | 0.12 ± 0.005 | 86.5 ± 1.35 | 90.6 ± 2.75 | AChE/>1000 | > 1000 | 21.5 ± 0.874 | 30.2 ± 1.13 | > 100 | 28.6 ± 1.05 | 59.9 ± 2.24 | > 100 | – | 41.3 ± 0.916 | 79.5 ± 2.86 | – | – | – | – | –
COc1ccc(C(=O)C=Cc2ccc(NC(=O)CN3CCN(CCCO)CC3)cc2)cc1OC [Compound 4i, N-(4-(3-(3,4-Dimethoxyphenyl)-3-oxoprop-1-en-1-yl)phenyl)-2-(4-(3-hydroxypropyl)piperazin-1-yl)acetamide] | 0.084 ± 0.003 | 90.5 ± 2.83 | 94.2 ± 2.06 | AChE/>1000 | > 1000 | 23.6 ± 1.07 | 39.6 ± 1.34 | > 1000 | 29.1 ± 0.962 | 41.1 ± 2.06 | > 100 | – | 47.4 ± 1.62 | 74.1 ± 2.42 | – | – | – | MAO-B/>10 | –
COc1ccc(C(=O)C=Cc2ccc(NC(=O)CN3CCN(CCN(C)C)CC3)cc2)cc1OC [Compound 4j, N-(4-(3-(3,4-Dimethoxyphenyl)-3-oxoprop-1-en-1-yl)phenyl)-2-(4-(2-(dimethylamino)ethyl)piperazin-1-yl)acetamide] | 0.043 ± 0.002 | 92.2 ± 3.48 | 94 ± 1.94 | AChE/>1000 | > 1000 | 28.4 ± 1.16 | 42.7 ± 2.06 | > 1000 | 32.3 ± 1.14 | 47.7 ± 1.94 | > 100 | – | 40.1 ± 1.06 | 82.2 ± 3.03 | – | – | – | MAO-B/>10 | –
COc1ccc(C(=O)C=Cc2ccc(NC(=O)CN3CCN(CCCN(C)C)CC3)cc2)cc1OC [Compound 4k, N-(4-(3-(3,4-Dimethoxyphenyl)-3-oxoprop-1-en-1-yl)phenyl)-2-(4-(3-(dimethylamino)propyl)piperazin-1-yl)acetamide] | 0.039 ± 0.001 | 94.1 ± 2.96 | 97.4 ± 2.81 | AChE/>1000 | > 1000 | 29 ± 1.04 | 46 ± 1.87 | > 100 | 41.3 ± 1.94 | 63 ± 2.86 | > 1000 | – | 36.1 ± 0.964 | 48.7 ± 1.84 | – | – | – | – | MAO-A/>10
COc1ccc(C(=O)C=Cc2ccc(NC(=O)CN3CCN(C4CCCC4)CC3)cc2)cc1OC [Compound 4l, 2-(4-Cyclopentylpiperazin-1-yl)-N-(4-(3-(3,4-dimethoxyphenyl)-3-oxoprop-1-en-1-yl)phenyl)acetamide] | > 100 | 40.3 ± 1.82 | 76.9 ± 2.36 | – | > 1000 | 32.7 ± 1.35 | 41 ± 2 | > 1000 | 30.4 ± 1.25 | 36.7 ± 0.984 | > 1000 | – | 29.7 ± 0.841 | 46.7 ± 1.15 | – | – | – | – | –
COc1ccc(C(=O)C=Cc2ccc(NC(=O)CN3CCN(S(C)(=O)=O)CC3)cc2)cc1OC [Compound 4m, N-(4-(3-(3,4-Dimethoxyphenyl)-3-oxoprop-1-en-1-yl)phenyl)-2-(4-(methylsulfonyl)piperazin-1-yl)acetamide] | 0.158 ± 0.006 | 87.6 ± 1.72 | 89.4 ± 2.59 | AChE/>1000 | > 1000 | 33.3 ± 1.22 | 37.3 ± 0.961 | > 1000 | 33.6 ± 1.32 | 39.4 ± 1.37 | > 100 | – | 29 ± 0.826 | 58 ± 1.63 | – | – | – | MAO-B/>10 | –
COc1cccc2c1C(=O)c1c(O)c3c(c(O)c1C2=O)C[C@@](O)(C(=O)CO)C[C@@H]3O[C@H]1C[C@H](N)[C@H](O)[C@H](C)O1 [Doxorubicin, reference compound] | – | – | – | – | – | – | – | – | – | – | – | – | – | – | – | > 1000 | – | – | –

From publication PMC12560751 (RSC Advances, 2025)
